Measurements: ChEMBL document CHEMBL3813639, “The Halicylindramides, Farnesoid X Receptor Antagonizing Depsipeptides from a Petrosia sp. Marine Sponge Collected in Korea” (J Nat Prod, 2016)
Active and inactive are the calls of the source. The rule behind the calls is not given here.

Assays:
Mus musculus = assay: Antiinflammatory activity in Swiss mouse assessed as inhibition of carrageenan-induced paw edema at 0.3 mg/kg, ip by hydroplethismometer; type: functional
[1] = system: Human immunodeficiency virus 1; assay: Antiviral activity against HIV1 3B infected in human PBMC cells assessed as reduction in reverse transcriptase activity after 5 days by XTT assay; type: functional, organism-based; conditions: Human immunodeficiency virus 1, 3B, 120 h
HepG2 = assay: cells; conditions: Homo sapiens, HepG2, 24 h
Description: Cytotoxicity against human HepG2 cells after 24 hrs by MTT assay

Bile acid receptor = target: T1, Bile acid receptor (Homo sapiens, UniProt Q96RI1); assay: Antagonist activity at human FXR expressed in CV-1 cells assessed as inhibition of CDCA-induced receptor transactivation after 24 hrs by luciferase reporter gene assay; type: cell-based
T1 sequence (Q96RI1 whole entry): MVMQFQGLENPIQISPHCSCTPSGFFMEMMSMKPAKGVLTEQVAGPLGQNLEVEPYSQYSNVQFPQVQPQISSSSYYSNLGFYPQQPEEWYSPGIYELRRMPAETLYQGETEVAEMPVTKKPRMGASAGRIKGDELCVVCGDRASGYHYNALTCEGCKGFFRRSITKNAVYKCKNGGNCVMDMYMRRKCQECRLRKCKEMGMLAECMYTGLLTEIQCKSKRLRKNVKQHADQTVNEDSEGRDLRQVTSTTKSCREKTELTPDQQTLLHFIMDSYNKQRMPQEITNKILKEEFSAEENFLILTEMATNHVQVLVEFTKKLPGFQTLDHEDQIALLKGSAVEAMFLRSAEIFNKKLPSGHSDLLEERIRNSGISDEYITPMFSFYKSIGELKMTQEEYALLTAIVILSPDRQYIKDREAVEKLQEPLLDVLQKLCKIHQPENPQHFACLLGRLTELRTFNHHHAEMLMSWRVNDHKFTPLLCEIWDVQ

MCF7 = assay: Antiproliferative activity against human MCF7 cells after 20 hrs by microculture tetrazolium assay; type: functional; conditions: MCF7, 20 h, read-out: ED50 (the source's name)
[2] = target: T2, Bile acid receptor (Homo sapiens) (UniProt Q96RI1); assay: Antagonist activity at human FXR expressed in CV-1 cells assessed as inhibition of CDCA-induced receptor transactivation upto 100 uM after 24 hrs by luciferase reporter gene assay; type: cell-based
T2 sequence (whole entry): T1 sequence (Q96RI1 whole entry)

[3] = system: Human immunodeficiency virus 1; assay: Antiviral activity against HIV1 RF assessed as inhibition of viral infection in human T-lymphoblastoid cells; type: functional, organism-based; conditions: Human immunodeficiency virus 1, RF

Row | SMILES | IC50 (HepG2) | IC50 (Bile acid receptor) | further results
1 | CCC[C@@H](CC[C@@H](C)[C@@H]1OC(=O)[C@H](C)NC(=O)[C@H]([C@@H](C)CCO)N(C)C(=O)[C@]2(C)CSC(=N2)[C@H](C)NC(=O)C1(C)C)OC | – | – | inhibition in vivo at 0.3 mg/kg (Mus musculus): 60%
2 | CC[C@@H](C)C[C@@H](C)[C@@H](O)[C@@H](C)C(=O)N[C@H](CCCN)C(=O)N[C@@H](CCC(=O)O)[C@@H](O)[C@@H](O)C(=O)N[C@H](C(=O)N[C@H]1C(=O)N[C@H](CO)C(=O)N[C@H](CCCN)C(=O)N[C@@H](CC(C)C)C(=O)N(C)[C@@H](CCC(N)=O)C(=O)N[C@@H]([C@@H](C)OC)C(=O)N[C@H](CC(=O)O)C(=O)N2CCCC[C@H]2C(=O)O[C@@H]1[C@H](C)C(C)C)[C@@H](C)[C@@H](C)C(N)=O | – | – | IC50 [1]: 0.075 µM
3 | CC(C)[C@@H](NC(=O)[C@H]1CCCN1C(=O)[C@H](Cc1ccccc1)NC(=O)[C@@H](C)NC=O)C(=O)N[C@H](C(=O)N[C@H](Cc1c[nH]c2ccccc12)C(=O)N[C@@H](CCCNC(=N)N)C(=O)N[C@H](CS(=O)(=O)O)C(=O)N[C@H]1C(=O)N(C)[C@H](CCC(N)=O)C(=O)N[C@@H](Cc2ccccc2)C(=O)N[C@H]([C@H](C)O)C(=O)N[C@H](CC(N)=O)C(=O)N(C)CC(=O)O[C@@H]1C)C(C)(C)C | 100 µM | 6 µM | –
4 | CN[C@H](C(=O)N[C@H](C(=O)N(C)[C@H](/C=C(\C)C(=O)O)C(C)C)C(C)(C)C)C(C)(C)c1cn(C)c2ccccc12 [HEMIASTERLIN] | – | – | EC50 (MCF7): 0.0005 µM
5 | CC(C)[C@@H](NC(=O)[C@@H]1CCCN1C(=O)[C@H](Cc1ccc(Br)cc1)NC(=O)[C@@H](C)NC=O)C(=O)N[C@H](C(=O)N[C@H](Cc1c[nH]c2ccccc12)C(=O)N[C@@H](CCCNC(=N)N)C(=O)N[C@H](CS(=O)(=O)O)C(=O)N[C@@H]1C(=O)N(C)[C@@H](CCC(N)=O)C(=O)N[C@H](Cc2ccccc2)C(=O)N[C@@H]([C@@H](C)O)C(=O)N[C@@H](CC(N)=O)C(=O)N(C)CC(=O)O[C@@H]1C)C(C)(C)C | 100 µM | 5 µM | –
6 | CC(C)[C@@H](NC(=O)[C@H]1CCCN1C(=O)[C@H](Cc1ccc(Br)cc1)NC(=O)[C@@H](C)NC=O)C(=O)N[C@H](C(=O)N[C@H](C[C@]1(O)C(=O)Nc2ccccc21)C(=O)N[C@@H](CCCNC(=N)N)C(=O)N[C@H](CS(=O)(=O)O)C(=O)N[C@H]1C(=O)N(C)[C@H](CCC(N)=O)C(=O)N[C@@H](Cc2ccccc2)C(=O)N[C@H]([C@H](C)O)C(=O)N[C@H](CC(N)=O)C(=O)N(C)CC(=O)O[C@@H]1C)C(C)(C)C | 100 µM | – | inhibition [2]: inactive
7 | CC(C)[C@H](NC(=O)[C@H](NC(=O)[C@@H]1CCCN1C(=O)[C@H](Cc1ccc(Br)cc1)NC(=O)[C@@H](C)NC=O)C(C)C)C(=O)N[C@H](Cc1c[nH]c2ccccc12)C(=O)N[C@@H](CCCNC(=N)N)C(=O)N[C@H](CS(=O)(=O)O)C(=O)N[C@@H]1C(=O)N(C)[C@@H](CCC(N)=O)C(=O)N[C@H](Cc2ccccc2)C(=O)N[C@@H]([C@@H](C)O)C(=O)N[C@@H](CC(N)=O)C(=O)N(C)CC(=O)O[C@@H]1C | 20 µM | 0.5 µM | –
8 | COc1cccc2c1C(=O)c1c(O)c3c(c(O)c1C2=O)C[C@@](O)(C(=O)CO)C[C@@H]3O[C@H]1C[C@H](N)[C@H](O)[C@H](C)O1 [DOXORUBICIN] | 2.1 µM | – | –
9 | CCC(C)/C=C(C)/C=C\C(O)C(C)(O)C(=O)NCC(=O)N[C@@H](C(=O)N[C@H](C(=O)N[C@H](C(=O)N[C@H]1C(=O)N[C@H](COC)C(=O)NCC(=O)N[C@@H](C)CN(C)[C@H]([C@@H](C)O)CNC(C(OC)c2ccc(O)cc2)C(=O)N2CCCC[C@H]2C(=O)O[C@@H]1C(C)C)[C@@H](C)[C@@H](C)C(N)=O)[C@H](C)N)[C@@H](C)O (stereo not given in full) | – | – | EC50 [3]: 0.0026 µM
10 | CC(C)[C@@H](NC(=O)[C@H]1CCCN1C(=O)[C@H](Cc1ccc(Br)cc1)NC(=O)[C@@H](C)NC=O)C(=O)N[C@H](C(=O)N[C@H](C[C@@]1(O)C(=O)Nc2ccccc21)C(=O)N[C@@H](CCCNC(=N)N)C(=O)N[C@H](CS(=O)(=O)O)C(=O)N[C@H]1C(=O)N(C)[C@H](CCC(N)=O)C(=O)N[C@@H](Cc2ccccc2)C(=O)N[C@H]([C@H](C)O)C(=O)N[C@H](CC(N)=O)C(=O)N(C)CC(=O)O[C@@H]1C)C(C)(C)C | 100 µM | – | inhibition [2]: inactive
